We go through 1 compound from patent publication US6410545B1, “Lipid lowering quinazoline dietary supplement composition” (Parker Hughes Institute, priority 1998, dated 2002).

Experiment [1] has as its system apo e−/− mice. As to the kind of experiment: Serum lipoprotein profile (VLDL-C, HDL-C) by FPLC in apo e−/− mice. In kind it is in vivo. The following applies: for HDL-C / VLDL-C: apo e−/− mice, one week. As for the experimental part: (§1) Three- to four-week old apolipoprotein E deficient (apo E^−/−) mice were the progeny of breeding pairs of apo E knockout (apo EKO) mice obtained from Jackson Labs. (Bar Harbor, Me., USA). Mice were fed either regular rodent chow (5% fat and 0% cholesterol) (Teklad-LM 485, Harlan Teklad, Madison, Wis., USA), the Paigen's cocoa butter diet, or the Western diet (21.22% fat and 0.2% cholesterol) (Harlan Teklad, Madison, Wis., USA) for two weeks prior to treatment.
(§2) Animals were treated with test compounds by intraperitoneal injection daily for 7 days. A range of doses was administered. Control animals received vehicle alone. The effect of quinazoline derivatives on total cholesterol, LDL, HDL, liver enzymes, and glucose was analyzed. The mice tissues were also examined histologically.
Serum cholesterol profiles were examined by Fast Protein Liquid Chromatography (FPLC) using 100 μl of serum per run. The serum was passed over two Superose™ 6 HR 10/30 connected in tandem equilibrated in phosphate buffered saline (PBS), using the FPLC system from Pharmacia Biotech (Piscataway, N.J., USA) consisting of a controller LCC-501 plus connected to a UV detector (UV-MII), two P500 pumps, and a Frac-100 fraction collector. The FPLC was remotely controlled and operated by the FPLC director program operated on an IBM computer. The system was operated at a flow rate of 0.5 ml/minute and fractions were collected at 0.5 ml/fraction. Cholesterol concentration of each fraction was determined as described above and plotted against the fraction numbers to obtain the serum cholesterol profile.
To determine the serum concentrations of LDL/β-VLDL and HDL, the sums of the LDL/β-VLDL peak (fractions 29-35) and the HDL peak (fractions 53-63) were divided by 0.1. To obtain the IC50 and the minimum β-VLDL and HDL concentrations, the concentrations of β-VLDL and HDL were plotted against the dosage. Best fitted exponential decay curves were obtained using the equation: Concentration of HDL or LDL/β-VLDL=Aexp(−BX)+E, where A+E equals the concentration of HDL or LDL/β-VLDL at the dosage of 0 μg/day and E equals the mathematical minimum concentration of HDL or β-VLDL, and B equals 0.69/IC50. Best fitted curves were obtained using the Graphpad Inplot program, Graphpad Software, San Diego, Calif., USA.
(§3) On regular rodent chow, the serum total cholesterol level of apo e^−/− mice was 836±57 mg/dL (n=47). After one week therapy with 8 mg/kg/day WHI-P164 (n=12), the mean serum total cholesterol level was reduced to 551±29 mg/dL (p=0.02).
(§4) When challenged with a cholesterol-rich diet, these animals developed frank hypercholesterolemia due to delayed clearance of intestinal chylomicrons which shuttle the dietary cholesterol from the intestine to the liver. In the present study, all of the 46 ApoE-deficient mice that were fed Western diet (14) became severely hypercholesterolemic with a mean serum total cholesterol level of 1491±59 mg/dL. One week WHI-P164 therapy reduced the mean serum total cholesterol level of hypercholesterolemic apo e^−/− mice to 1194±84 mg/dL (p=O.006) at a dose level of 8 mg/kg/day (n=19) and to 876±57 mg/dL (p<0.0001) at a dose level of 40 mg/kg/day (n=17) (Table 3).

The subject of experiment [2] is apo e−/− mice. As to the kind of experiment: In vivo hepatic VLDL-TG production using Triton WR1339 in apo e−/− mice. As for the experimental part: C57B⅙ and apoE-deficient mice were treated with intraperitoneal injections of 50 μl vehicle or 40 mg/kg WHI-P164 in 50 μl vehicle for 7 consecutive days, followed by a 36 hour fast to shut down intestinal chylomicron synthesis. […] Blood samples were taken at 0 and 4 hours after Triton WR1339 injection and plasma TG levels were measured enzymatically using a commercially available enzymatic kit (Sigma Chemical Co.). Alternatively, food was returned to the mice after a 36 hour fast and blood samples were collected at 0, 1, 3, 6, and 9 hours after returning the food. Accumulation of chylomicron-TG was determined as accumulation of plasma TG.
To determine if WHI-P164 prevent hepatic TG accumulation by relieving 9 block in VLDL-TG secretion or by inhibiting upstream TG synthesis, in vivo hepatic VLDL-TG synthesis was analyzed. Synthesis was determined by following the accumulation of VLDL-TG after shutting down VLDL catabolism with Triton WR1339 injection and intestinal chylomicron synthesis with a 36 hours fast.
C57B⅙ and apoE-deficient mice were treated with intra peritoneal injections of vehicle or 40 mg/kg WHI-P164 (in 50 μl vehicle) for 7 consecutive days, followed by a 36 hour fast to shut down intestinal chylomicron synthesis. […] Blood samples (50 μl) were taken at 0 and 4 hours after Triton WR1339 injection and plasma TG was measured enzymatically using a commercially available enzymatic kit (Sigma Chemical Co.), as previously reported (Kuipers, supra).

Experiment [3] has as its system apo e−/− mice. As to the kind of experiment: Serum total cholesterol in apolipoprotein E deficient mice. In kind it is in vivo. The following applies: for Mean serum total cholesterol: apo e−/− mice, 8 mg/kg/day, one week. As for the experimental part:
as §1, §2
Serum total cholesterol was measured enzymatically using the cholesterol kit from Sigma Chemical Co. (St. Louis, Mo., USA). For liver tissue lipid measurements, lipids were extracted from homogenized hepatic tissues using the method of Bligh and Dyer (Bligh, et al., Can. J. Biochem. Phys. 1959, 37:911-917). One gram of liver tissue was homogenized in 1 ml of distilled water and extracted with 4 ml of chloroform/methanol (1:1, v/v). The chloroform phase containing the lipids was evaporated under a stream of nitrogen, the lipids dissolved in 100 μL of isopropanol, and subjected to cholesterol determination as described above. Triglyceride (TG) contents were determined using the TG kit from Sigma Chemical Co.
as §3, §4

[4] abbreviates: hypercholesterolemic apo e−/− mice.

Regarding `COc1cc2ncnc(C(=O)c3cccc(Br)c3)c2cc1OC` [WHI-P164, 4-(3′-bromobenzoyl)-6,7-dimethoxyquinazoline], the HDL-C with apo e−/− mice [1] (Western diet, 40 mg/kg/day) stood at 90 ± 4 mg/dL; in the experiment with apo e−/− mice [1] (rodent chow, 8 mg/kg/day), 50 ± 10 mg/dL. In addition, the VLDL-C worked out at 587 ± 4 mg/dL with apo e−/− mice [1] (Western diet, 40 mg/kg/day) and 190 ± 13 mg/dL in the experiment with apo e−/− mice [1] (rodent chow, 8 mg/kg/day). The “Reduction of β-VLDL/LDL-cholesterol levels” value with apo e−/− mice [1] (setting [4]) was determined as 63%. In the experiment on apo e−/− mice [2] (apo e−/− (C57B1/6), 40 mg/kg i.p. 7 days, 36 hour fast), the “Triglyceride, Pre-Triton WR 1339” value is listed as 155 ± 14 (n = 10) mg/dL. Moreover, the “Triglyceride, Post-Triton WR 1339” value in the experiment on apo e−/− mice [2] (apo e−/− (C57B1/6), 40 mg/kg i.p. 7 days, 36 hour fast, 4 hours after Triton WR1339) is 465 ± 46 (n = 8) mg/dL. Also, in the experiment with apo e−/− mice [2] (apo e−/− mice, 40 mg/kg, versus vehicle), the “Accumulation of VLDL-TG after Triton WR1339 treatment” value was “significantly less accumulation of VLDL-TG than vehicle-treated control mice”. Moreover, the Serum total cholesterol in the experiment on apo e−/− mice [3] (apo e−/− (C57B1/6) mice, Western diet two weeks, then drug 1 week at 40 mg/kg/day, 40 mg/kg/day) amounted to 876 ± 57 mg/dL. Further, the “Mean serum total cholesterol” value in the experiment with apo e−/− mice [3] (Western diet) was 1194 ± 84 mg/dL; in the experiment with apo e−/− mice [3] (regular rodent chow), 551 ± 29 mg/dL. Moreover, the “Reduction of total cholesterol levels” value in the experiment on apo e−/− mice [3] (setting [4]) is reported as 41%.
